Source: patent US7022481B2, “Methods of using glucan synthase pathway reporter genes to screen for antifungal compounds” (Rosetta Inpharmatics LLC, priority 2002, dated 2006)
In brackets after ≈: the same amount, converted by molar mass. Like-named read-outs stand apart in the source and are kept apart here.

How the values were obtained:
Assay type in all cases: cell-based, S. cerevisiae
[1] = system: YOL113W (SKM1), YNR066C, YLR121C (YPS3), YKL161C, and YAR050W (FLO1) GFP reporters; experiment: liquid high-throughput like 96-well GFP reporter assay, glucan synthase pathway reporters; details: serial 1 to 2 dilutions, ~24 hours at 30 degrees Celsius, five GS reporters
Procedure: The five reporters selected were: YOL113W (SKM1), YNR066C, YLR121C (YPS3), YKL161C, and YAR050W (FLO1). Another reporter, YOR237W (HES1), was selected as a negative control.
1. Reporters transformed into wild-type S. Cerevisiae strain ABY12 were grown on solid Casamino Acids media plates.
2. The cultures from the solid media plates were used to inoculate 50 ml liquid cultures in Casamino Acids media. These liquid cultures were grown overnight at 30 degrees Celsius. The cultures were all grown to a final OD600˜=8 (Table V).
These cultures were then diluted in Casamino Acids media to and OD600=2.
3. The drug-like agents selected for the assay were the GS inhibitors Enfumafungin, Ascosteroside, and Dihydropapulacandin B; along with the Elongation Factor 2 (EF2) inhibitor Sordarin, to be used as a negative control. […]
5. After the 24 hour incubation the 96-well assay plates were imaged in a Molecular Dynamics Fluorimager SI to measure the fluorescence from the GFP reporters. […] Additionally, none of the compounds tested induced increased fluorescence from the reporter for inhibition of sterol biosynthesis, HES1 (FIG. 20). […] Of note here is the fact that the highest concentrations tested were all substantially greater than the measured IC50's for these compounds in the ABY12 strain (Table VI). […]

[2] = system: ABY12 strain; experiment: growth inhibition (IC values) in the ABY12 strain
Source text: 3. The drug-like agents selected for the assay were the GS inhibitors Enfumafungin, Ascosteroside, and Dihydropapulacandin B; along with the Elongation Factor 2 (EF2) inhibitor Sordarin, to be used as a negative control. These four drugs were all added to the second column of each 96-well assay plate and serially diluted (1 to 2) into Casamino Acids media plus 2% DMSO in columns 3–12, so that column 2 of each plate will contain the highest concentration of each drug and column 12 will contain the lowest. The first column of each plate was used as a “no drug” control, containing only Casamino Acids media plus 2% DMSO. The concentrations for each drug that were added to the wells in column 2 are shown in Table VI (Maximum Concentration Tested) along with the rows of each plate they were added to (Table VI, Rows).
5. After the 24 hour incubation the 96-well assay plates were imaged in a Molecular Dynamics Fluorimager SI to measure the fluorescence from the GFP reporters. […] Additionally, none of the compounds tested induced increased fluorescence from the reporter for inhibition of sterol biosynthesis, HES1 (FIG. 20). […] Of note here is the fact that the highest concentrations tested were all substantially greater than the measured IC50's for these compounds in the ABY12 strain (Table VI). Therefore these strains are capable of reporting on inhibition of GS even at drug concentrations that inhibit cell growth. This is an important characteristic of this assay as the preferred method of high-throughput screening would be to perform the screens at one high concentration for every compound assayed. It has been previously shown that the HES1 reporter strain is capable of performing under such assay conditions in a 384-well formatted high-throughput screen of a combinatorial library (WO 00/58521, PCT published application).

[3] = system: wild-type S288C strain; experiment: microbe, parasite or virus in culture
Procedure: First, comprehensive gene expression profiles for S. cerevisiae grown in the presence of known inhibitors of glucan synthase were constructed. Enfumafungin and Ascosteroside were two known glucan synthase inhibitors used in the present invention. Prior to exposing the GRM to these two glucan synthase inhibitors, growth inhibition studies were performed on wild-type S288C strain in order to determine the appropriate concentrations for GRM profiling.

[4] = system: lawn of the YOL113W (SKM1) reporter strain (ABY12); experiment: solid plate halo assay, growth of lawn; details: 20 ul of 200 μg/ml (low) and 20 ul of 1 mg/ml (high) on paper disc, 23 hour incubation
Procedure: (§1) This assay is meant to mimic assays where natural product producing strains would be either plated onto a lawn of our ABY12 reporter carrying strains, or an agar overlay containing the ABY12 reporter strain would be placed over a plate containing natural product producing strains, the purpose being identifying strains that are producing molecules that inhibit GS.
(§2) 1. The YOL113W (SKM1) reporter transformed into wild-type S. Cerevisiae strain ABY12 was grown on a solid Casamino Acids media plate.
(§3) 2. The culture from the solid media plate was used to inoculate a 50 ml liquid culture in Casamino Acids media. This liquid culture was grown overnight at 30 degrees Celsius. The culture was grown to a final OD600=10.5. This culture was then diluted in Casamino Acids media to an OD600=1, or 1×10^7 cells per milliliter. Five-hundred microliters of cell culture (5×10^6 cells) was then spread evenly over the surface of each of two 100 mm solid agar-Casamino-acids-media plates to form a lawn of the YOL113W (SKM1) reporter strain on each plate.
(§4) 3. Two 6 mm diameter blank paper discs (BECTON DICKINSON® #231039) were placed on top of the agar surface of each plate evenly spaced apart. […]
(§5) 4. After a 23 hour incubation the assay plates were imaged in a Molecular Dynamics Fluorimager SI to measure the fluorescence from the GFP reporters. […]

[5] = system: gene reporters in the GRM (promoter-GFP fusions); experiment: Genome Reporter Matrix (GRM) reporter gene expression profiling
Source text: Genome Reporter Matrix™ (GRM) technology was used to generate the gene expression profiles that the glucan synthase inhibition treatments induced in the yeast S. cerevisiae. The GRM was used to generate comprehensive gene expression profiles in the yeast S. cerevisiae. The GRM used in the present invention was a matrix of units comprising living S. cerevisiae cells, the cells in each unit containing one S. cerevisiae reporter fusions (GRM construct) representative of essentially every known gene and hypothetical open reading frame (ORF) of S. cerevisiae. The GRM constructs used in the present invention comprised a promoter, 5′ upstream untranslated region and usually the first four amino acids from one of each hypothetical ORF fused to a gene encoding the green fluorescent protein (GFP).
Solutions of test compounds were added directly to the solid agar growth media plates prior to addition of S. cerevisiae strains. The individual strains comprising the GRM were maintained as independent colonies (and cultures) in a 96-well format, in medium selecting for the URA2-containing reporter plasmid. Prior to each experiment, fresh dilutions of the reporter-containing strains were inoculated and grown overnight at 30° C. A Hamilton MicroLab 4200, a multichannel gantry robot equipped with a custom pin tool device capable of dispensing 50 nanoliter volumes in a highly reproducible manner, was used to array the matrix of S. cerevisiae strains in a uniform manner onto solid agar growth media at a density of 1536 reporter strains per 110 cm^2 plate. Fifty nanoliters of S. cerevisiae liquid cultures arrayed onto solid medium by the Hamilton Microlab 4200 results in colony-to-colony signal reproducibility of less than 5% variation. Once arrayed, each plate was grown at 30° C. for 18 hours or at 25° C. for 24 hours.
The level of fluorescence expressed from each reporter gene fusion was determined using a Molecular Dynamics Fluorimager SI. Custom image analysis software was used to quantitate the fluorescence of each colony in the images.

[6] = system: YOL113W (SKM1) reporter; experiment: solid plate halo assay, reporter fluorescence; details: 20 ul of 200 μg/ml and 1 mg/ml on paper disc, 23 hour incubation
Procedure: as §1, §2, §3, §4, §5

[7] = Saccharomyces cerevisiae, read-out: IC50
[8] = growth inhibition, wild-type S288C strain

| Molecule | fluorescence from the GFP reporters versus no drug controls [1] | IC25 [2] [µg/mL] | IC75 [2] [µg/mL] | IC50 [2, 7] [µg/mL] | IC50 ([3]; Saccharomyces cerevisiae) [µg/mL] | IC25 [3, 8] [µg/mL] | IC75 [3, 8] [µg/mL] | effectiveness in growth inhibition assays ([3]; wild-type S288C strain) | growth of the lawn around paper disc (halo) [4] | growth inhibition of the GRM ([5]; 0.60 μg/ml and 0.75 μg/ml) | induction of the YOL113W (SKM1) reporter (fluorescence at edge of halo) [6] | induction of the YOL113W (SKM1) reporter (fluorescence at edge of halo) ([6]; listed as enfumafungin) | IC50 [2] [µg/mL] | IC50 [3, 8] [µg/mL] | expression response of reporter YKL161C ([5]; 5 μg/ml in 1% DMSO, FIG. 9) | number of gene reporters significantly up- or down-regulated ([5]; lowest concentration (5.0 μg/ml), p<=0.01, of roughly 6,000 gene reporters in the GRM) |
| --- | --- | --- | --- | --- | --- | --- | --- | --- | --- | --- | --- | --- | --- | --- | --- | --- |
| CO[C@H]1[C@@H](O)[C@H](O)[C@H](OC[C@@]23C[C@@H]4[C@H](C)CC[C@H]4[C@@]4(C=O)CC2C=C(C(C)C)[C@@]34C(=O)O)O[C@@H]1C [Sordarin] | None of the reporters, however, showed any increase in fluorescence | 1.1 (≈ 2.23 µM) | 2.5 (≈ 5.08 µM) | 1.5 (≈ 3.05 µM) | – | – | – | – | – | – | – | – | – | – | – | – |
| CC(=O)O[C@@H]1C[C@]23C4=CC[C@@]5(C)[C@H](C(=O)O)[C@@](C)([C@H](C)C(C)C)CC[C@]5(C)[C@H]4CC[C@H]2[C@@](C)(COC3O)[C@H]1O[C@@H]1O[C@H](CO)[C@@H](O)[C@H](O)[C@H]1O (stereo partly shown) [Enfumafungin] | – | 0.54 (≈ 0.762 µM) | 0.9 (≈ 1.27 µM) | 0.69 (≈ 0.973 µM) | 0.69 (≈ 0.973 µM) | 0.54 (≈ 0.762 µM) | 0.9 (≈ 1.27 µM) | effective | inhibited the growth of the lawn | too much growth inhibition | significantly induced | upregulating SKM1 reporter | – | – | – | – |
| Dihydropapulacandin B | – | 3.7 | 5.3 | – | – | – | – | – | – | – | – | – | 4.4 | – | – | – |
| C=C(CC[C@H](C)[C@H]1C[C@@H](O)[C@@]2(C(=O)O)C3=C(CC[C@]12C)[C@@]1(C)CC[C@H](O[C@H]2O[C@H](CO)[C@@H](OC)[C@H](O)[C@H]2O)C(=C)[C@@H]1CC3)C(C)C [Ascosteroside] | – | 6.3 (≈ 9.74 µM) | – | – | – | 6.3 (≈ 9.74 µM) | – | effective | – | – | – | – | 19 (≈ 29.4 µM) | 19 (≈ 29.4 µM) | highly up-regulated | 318 |
